The target of this test is T1, human A2a adenosine receptor (Homo sapiens, UniProt P29274).
T1 construct: purchased Perkin Elmer RBHA2aM400UA; host or cells: HEK293 or CHO cells (recombinant expression)
The test can be described thus: A2a binding affinity using SPA, Method (B). As to conditions: Method (B): [3H]SCH58261 SPA, membranes expressing human A2a. From the text: Method (A) describes the procedure used to measure A2a binding affinity using radioligand binding. Method (B) describes the procedure used to measure A2a binding affinity using SPA technology. The method used to measure A2b binding affinity is also described below. The method used to determine the A2a IC50 value reported for each compound in the table is indicated next to the reported value. The A2b IC50 value measured using the A2b binding affinity assay is shown in the table next to the compound under the corresponding A2a value.
The A2a receptor affinity binding assay measured the amount of binding of a tritiated ligand with high affinity for the A2a adenosine receptor to membranes made from HEK293 or CHO cells recombinantly expressing the human A2a adenosine receptor, in the presence of varying concentrations of a compound of the invention. The data were generated using either filtration binding or a homogenous scintillation proximity assay (SPA).
Method (B): Measurement of A2a Binding Affinity Using SPA
Binding affinity using SPA was conducted as follows. Test compounds (50 nL) were dispensed into individual wells of a 384-well OptiPlate™ well (Perkin Elmer) by Echo® acoustic liquid transfer (Labcyte). 20 μL of 1.25 nM [^3H] SCH58261 ((7-(2-phenylethyl)-5-amino-2-(2-furyl)-pyrazolo-[4,3-e]-1,2,4-triazolo[1,5-c]pyrimidine)) in DPBS assay buffer (Dulbecco's phosphate buffered saline without calcium and magnesium, ThermoFisher Scientific, Cat. No. A1285601) supplemented with 10 mM MgCl2 was added. A2a receptor-expressing membranes were incubated with 20 μg/mL adenosine deaminase (Roche, Cat. No. 10 102 105 001) for 15 minutes at room temperature. The receptor-expressing membranes were then combined with wheat germ agglutinin-coated yttrium silicate SPA beads (GE Healthcare, Cat. No. RPNQ0023) in a ratio of […] (w/w) and incubated for 30 minutes at room temperature. 30 μL of the membrane/bead mixture (0.25 μg and 25 μg per well respectively) were added to the 384-well OptiPlate™ well. To define total and non-specific binding, wells containing 1% DMSO or 1 μM CGS15943 (Tocris Bioscience, Cat. No. 1699) respectively were also included in the experiment. The plate was incubated for one hour at room temperature with agitation. The assay plate was then incubated for an hour to allow the beads to settle before data were collected using a TopCount® (Perkin Elmer) scintillation counter. After normalization to total and non-specific binding, the percent effect at each compound concentration was calculated. The plot of percent effect versus the log of compound concentration was analyzed electronically using a 4-parameter logistic fit based on the Levenberg-Marquardt algorithm to generate IC50 values.

Consider 4 molecules from patent US12466831B2, “Substituted amino triazolopyrimidine and amino triazolopyrazine adenosine receptor antagonists, pharmaceutical compositions and their use” (Merck Sharp & Dohme LLC, priority 2018, dated 2025).

T1 sequence (P29274 whole entry): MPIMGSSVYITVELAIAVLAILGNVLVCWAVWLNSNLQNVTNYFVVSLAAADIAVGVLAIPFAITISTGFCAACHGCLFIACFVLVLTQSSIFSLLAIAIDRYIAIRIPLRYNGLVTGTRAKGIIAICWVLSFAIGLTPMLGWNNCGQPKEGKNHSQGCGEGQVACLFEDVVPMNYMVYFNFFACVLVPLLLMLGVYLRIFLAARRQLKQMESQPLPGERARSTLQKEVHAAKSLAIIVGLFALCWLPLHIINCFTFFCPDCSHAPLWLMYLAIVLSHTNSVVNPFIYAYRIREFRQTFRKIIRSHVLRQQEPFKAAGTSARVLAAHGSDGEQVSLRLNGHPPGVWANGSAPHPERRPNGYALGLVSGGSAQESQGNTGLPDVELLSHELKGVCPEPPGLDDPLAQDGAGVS

For the molecule `C=C(C)c1c(-c2ccccc2)nc(N)n2nc([C@@H]3CCCN(CC(F)(F)F)C3)nc12` [Example 7.3, (R)-7-phenyl-8-(prop-1-en-2-yl)-2-(1-(2,2,2-trifluoroethyl)piperidin-3-yl)-[1,2,4]triazolo[1,5-c]pyrimidin-5-amine], the IC50 amounted to 65.8 nM. `Nc1nc(-c2ccccc2)c(C2CC2)c2nc([C@@H]3CCCN(CC(F)(F)F)C3)nn12` [Example 5.5, (R)-8-cyclopropyl-7-phenyl-2-(1-(2,2,2-trifluoroethyl)piperidin-3-yl)-[1,2,4]triazolo[1,5-c]pyrimidin-5-amine] showed a half-maximal inhibitory concentration (IC50) of 81.7 nM. In the case of `Nc1nc(-c2ccccc2)cc2nc([C@@H]3CCCN(CC(F)F)C3)nn12` [Example 9.2, (R)-2-(1-(2,2-difluoroethyl)piperidin-3-yl)-7-phenyl-[1,2,4]triazolo[1,5-c]pyrimidin-5-amine], the IC50 was 10.9 nM. The figure for `CC(C)(O)c1c(-c2ccccc2)nc(N)n2nc([C@@H]3CCCN(CC(F)(F)F)C3)nc12` [Example 6.5, (R)-2-(5-amino-7-phenyl-2-(1-(2,2,2-trifluoroethyl)piperidin-3-yl)-[1,2,4]triazolo[1,5-c]pyrimidin-8-yl)propan-2-ol] is 1030 nM.
